# Structures can show the parent of a compound that is named as a salt.
# Biological target: T1, Recombinant human cathepsin K (Homo sapiens, UniProt P43235)
# T1 construct: made in house
# T1 sequence (P43235 115-329): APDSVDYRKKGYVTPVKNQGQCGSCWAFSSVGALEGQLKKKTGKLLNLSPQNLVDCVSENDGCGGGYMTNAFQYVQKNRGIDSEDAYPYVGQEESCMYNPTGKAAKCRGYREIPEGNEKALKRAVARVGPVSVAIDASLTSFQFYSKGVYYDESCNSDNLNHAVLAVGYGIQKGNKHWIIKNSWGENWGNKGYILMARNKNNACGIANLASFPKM
# Experiment: Inhibition of cathepsin K activity (Z-Phe-Arg-AMC fluorescence assay)
# Type: biochemical
# Conditions: 25 uM Z-Phe-Arg-AMC, pH 5.5, 1 hour at 37° C.
# Description: Test 1: Inhibition of Cathepsin K Activity
# Recombinant human cathepsin K was prepared in accordance with Biol, Pharm. Bull, 19(8), 1026-1031 (1996) and J. Biol. Chem. 271, 2126-2132 (1996). Stock solutions of 2.5 mM Z-Phe-Arg-AMC (BACHEM, 1-1160) and all inhibitors were prepared in dimethyl sulfoxide. In vitro assays for cathepsin K were conducted with 25 uM Z-Phe-Arg-AMC as a substrate at pH 5.5 in 100 mM Na acetate buffer containing 20 mM cysteine and 5 mM EDTA in the presence of 2% final concentration of DMSO. Reaction was initiated by the addition of enzyme to samples, which were then incubated for 1 hour at 37° C. The fluorescence was monitored at 460 nm (excitation wavelength 360 nm) using fluorescence plate reader.
# The concentrations of the test compounds, which inhibit 50% of cathepsin K activity, are represented as IC50 in Table 1.
row,IC50,SMILES
1,3.14 nM,"CS(=O)(=O)c1ccccc1N1CCC(NC(=O)C2(NC(=O)c3ccc(OCCN4CCCCC4)cc3)CCCCC2)C(=O)C1 (stereo not shown) [Example 160, 4-[N-[1-[N-(4-(2-piperidinethoxy)benzoyl)amino]cyclohexanecarbonyl]amino]-1-(2-methanesulfonylphenyl)piperidin-3-one hydrochloride]"
2,3.87 nM,"Cc1occc1C(=O)NC1(C(=O)NC2CCN(c3ccccc3S(C)(=O)=O)CC2=O)CCCCC1 (stereo not shown) [Example 122, 4-[N-[1-[N-(2-methyl-furan-3-ylcarbonyl)amino]cyclohexanecarbonyl]amino]-1-(2-methanesulfonylphenyl)piperidin-3-one]"
3,0.77 nM,"CN(C)c1ccc(C(=O)NC2(C(=O)NC3CCN(c4ccc(F)cc4S(C)(=O)=O)CC3=O)CCCCC2)cc1 (stereo not shown) [Example 171, 4-[N-[1-[N-(4-(dimethylamino)benzoyl)amino]cyclohexanecarbonyl]amino]-1-(4-fluoro-2-methanesulfonylphenyl)piperidin-3-one]"
4,1.22 nM,"Cc1c(C(=O)NC2(C(=O)NC3CCN(c4ccccc4S(C)(=O)=O)CC3=O)CCCCC2)oc2ccccc12 (stereo not shown) [Example 133, 4-[N-[1-[N-(3-methyl-benzofuran-2-ylcarbonyl)amino]cyclohexanecarbonyl]amino]-1-(2-methanesulfonylphenyl)piperidin-3-one]"
5,2.35 nM,"CC(C)S(=O)(=O)c1ccccc1N1CCC(NC(=O)C2(NC(=O)c3ccc(Cl)s3)CCCCC2)C(=O)C1 (stereo not shown) [Example 116, 4-[N-[1-[N-(5-chloro-thiophen-2-ylcarbonyl)amino]cyclohexanecarbonyl]amino]-1-(2-isopropanesulfonylphenyl)piperidin-3-one]"
6,2.13 nM,"CS(=O)(=O)c1ccc(F)cc1N1CCC(NC(=O)C2(NC(=O)c3ccc(Cl)s3)CCCCC2)C(=O)C1 (stereo not shown) [Example 117, 4-[N-[1-[N-(5-chloro-thiophen-2-ylcarbonyl)amino]cyclohexanecarbonyl]amino]-1-(5-fluoro-2-methanesulfonylphenyl)piperidin-3-one]"
7,3.07 nM,"CS(=O)(=O)c1ccccc1N1CCC(NC(=O)C2(NC(=O)c3ccc(N4CCCC4=O)cc3)CCCCC2)C(=O)C1 (stereo not shown) [Example 167, 4-[N-[1-[N-(4-(2-oxopyrrolidine)benzoyl)amino]cyclohexanecarbonyl]amino]-1-(2-methanesulfonylphenyl)piperidin-3-one]"
8,3.25 nM,"CS(=O)(=O)c1ccccc1N1CCC(NC(=O)C2(NC(=O)c3ccc(OCCN4CCCC4)cc3)CCCCC2)C(=O)C1 (stereo not shown) [Example 159, 4-[N-[1-[N-(4-(2-pyrrolidinethoxy)benzoyl)amino]cyclohexanecarbonyl]amino]-1-(2-methanesulfonylphenyl)piperidin-3-one hydrochloride]"
9,0.67 nM,"CS(=O)(=O)c1ccccc1N1CCC(NC(=O)C2(NC(=O)c3cc4ccccc4s3)CCCCC2)C(=O)C1 (stereo not shown) [Example 128, 4-[N-[1-[N-(benzothiophen-2-ylcarbonyl)amino]cyclohexanecarbonyl]amino]-1-(2-methanesulfonylphenyl)piperidin-3-one]"
10,1.93 nM,"CS(=O)(=O)c1ccccc1N1CCC(NC(=O)C2(NC(=O)c3ccc(Cl)s3)CCCCC2)C(=O)C1 (stereo not shown) [Example 114, 4-[N-[1-[N-(5-chloro-thiophen-2-ylcarbonyl)amino]cyclohexanecarbonyl]amino]-1-(2-methanesulfonylphenyl)piperidin-3-one]"
11,4.11 nM,"O=C(NC1(C(=O)NC2CCN(c3ccc(Cl)cc3F)CC2=O)CCCCC1)c1cc2ccccc2s1 (stereo not shown) [Example 131, 4-[N-[1-[N-(benzothiophen-2-ylcarbonyl)amino]cyclohexanecarbonyl]amino]-1-(4-chloro-2-fluoro-phenyl)piperidin-3-one]"

# The remaining lines, values behind:
row,SMILES,IC50
1,"O=C(CCc1ccccc1)Nc1ccccc1N1CCC(NC(=O)C2(NC(=O)c3cc4ccccc4o3)CCCCC2)C(=O)C1 (stereo not shown) [Example 54, 4-[N-[1-[N-(benzofuran-2-ylcarbonyl)amino]cyclohexanecarbonyl]amino]-1-[2-[N-(3-phenylpropionyl)amino]phenyl]piperidin-3-one]",6.09 nM
2,"COC(=O)Nc1ccccc1N1CCC(NC(=O)C2(NC(=O)c3cc4ccccc4o3)CCCCC2)C(=O)C1 (stereo not shown) [Example 49, 4-[N-[1-[N-(benzofuran-2-ylcarbonyl)amino]cyclohexanecarbonyl]amino]-1-[2-[N-(methoxycarbonyl)amino]phenyl]piperidin-3-one]",0.45 nM
3,"CCN(CC)c1ccc(C(=O)NC2(C(=O)NC3CCN(c4ccc(F)cc4S(C)(=O)=O)CC3=O)CCCCC2)cc1 (stereo not shown) [Example 172, 4-[N-[1-[N-(4-(diethylamino)benzoyl)amino]cyclohexanecarbonyl]amino]-1-(4-fluoro-2-methanesulfonylphenyl)piperidin-3-one]",0.58 nM
4,"CN(C)c1ccc(C(=O)NC2(C(=O)NC3CCN(c4ccc(F)cc4S(C)(=O)=O)CC3=O)CCCCC2)cc1 (stereo not shown) [Example 173, 4-[N-[1-[N-(4-(dimethylamino)benzoyl)amino]cyclohexanecarbonyl]amino]-1-(4-fluoro-2-methanesulfonylphenyl)piperidin-3-one hydrochloride]",1.59 nM
5,"O=C(CCCCl)Nc1ccccc1N1CCC(NC(=O)C2(NC(=O)c3cc4ccccc4o3)CCCCC2)C(=O)C1 (stereo not shown) [Example 50, 4-[N-[1-[N-(benzofuran-2-ylcarbonyl)amino]cyclohexanecarbonyl]amino]-1-[2-[N-(4-chlorobutyryl)amino]phenyl]piperidin-3-one]",1.2 nM
6,"N#Cc1c(F)cccc1N1CCC(NC(=O)C2(NC(=O)c3cc4ccccc4o3)CCCCC2)C(=O)C1 (stereo not shown) [Example 8, 4-[N-[1-[N-(benzofuran-2-ylcarbonyl)amino]cyclohexanecarbonyl]amino]-1-(2-cyano-3-fluorophenyl)piperidin-3-one]",10.4 nM
7,"O=C(NC1(C(=O)NC2CCN(c3ccc(F)cc3N3CCCC3=O)CC2=O)CCCCC1)c1ccco1 (stereo not shown) [Example 95, 4-[N-[1-[N-(furan-2-ylcarbonyl)amino]cyclohexanecarbonyl]amino]-1-[4-fluoro-2-(pyrrolidin-2-one-1-yl)phenyl]piperidin-3-one]",10.8 nM
8,"CS(=O)(=O)c1ccccc1N1CCC(NC(=O)C2(NC(=O)c3cc4cc(OCCN5CCOCC5)ccc4o3)CCCCC2)C(=O)C1 (stereo not shown) [Example 161, 4-[N-[1-[N-(5-(2-morpholinethoxy)benzofuran-2-ylcarbonyl)amino]cyclohexanecarbonyl]amino]-1-(2-methanesulfonylphenyl)piperidin-3-one]",0.41 nM
9,"CS(=O)(=O)c1ccccc1N1CCC(NC(=O)C2(NC(=O)c3cc4cc(OCCN5CCCCC5)ccc4o3)CCCCC2)C(=O)C1 (stereo not shown) [Example 166, 4-[N-[1-[N-(5-(2-piperidinethoxy)benzofuran-2-ylcarbonyl)amino]cyclohexanecarbonyl]amino]-1-(2-methanesulfonylphenyl)piperidin-3-one hydrochloride]",0.71 nM
10,"CSc1cc(F)ccc1N1CCC(NC(=O)C2(NC(=O)c3ccco3)CCCCC2)C(=O)C1 (stereo not shown) [Example 85, 4-[N-[1-[N-(furan-2-ylcarbonyl)amino]cyclohexanecarbonyl]amino]-1-(4-fluoro-2-thiomethoxyphenyl)piperidin-3-one]",10.4 nM
11,"CCOc1ccccc1N1CCC(NC(=O)C2(NC(=O)c3cc4ccccc4o3)CCCCC2)C(=O)C1 (stereo not shown) [Example 27, 4-[N-[1-[N-(benzofuran-2-ylcarbonyl)amino]cyclohexanecarbonyl]amino]-1-(2-ethoxyphenyl)piperidin-3-one]",8.07 nM
12,"O=C(NC1(C(=O)NC2CCN(c3ccccc3[N+](=O)[O-])CC2=O)CCCCC1)c1ccc2ccccc2n1 (stereo not shown) [Example 138, 4-[N-[1-[N-(quinolin-2-ylcarbonyl)amino]cyclohexanecarbonyl]amino]-1-(2-nitrophenyl)piperidin-3-one]",4.82 nM
13,"CC(C)Oc1ccccc1N1CCC(NC(=O)C2(NC(=O)c3cc4ccccc4o3)CCCCC2)C(=O)C1 (stereo not shown) [Example 41, 4-[N-[1-[N-(benzofuran-2-ylcarbonyl)amino]cyclohexanecarbonyl]amino]-1-(2-isopropoxyphenyl)piperidin-3-one]",7.73 nM
14,"CC(=O)Nc1ccccc1N1CCC(NC(=O)C2(NC(=O)c3cc4ccccc4o3)CCCCC2)C(=O)C1 (stereo not shown) [Example 56, 4-[N-[1-[N-(benzofuran-2-ylcarbonyl)amino]cyclohexanecarbonyl]amino]-1-[2-[N-(acetyl)amino]phenyl]piperidin-3-one]",1.62 nM
15,"CC1(C)CN(c2ccccc2N2CCC(NC(=O)C3(NC(=O)c4cc5ccccc5o4)CCCCC3)C(=O)C2)C1=O (stereo not shown) [Example 43, 4-[N-[1-[N-(benzofuran-2-ylcarbonyl)amino]cyclohexanecarbonyl]amino]-1-[2-(3,3-dimethylazetidin-2-one-1-yl)phenyl]piperidin-3-one]",4.97 nM
16,"CS(=O)(=O)c1ccccc1N1CCC(NC(=O)C2(NC(=O)c3cc4cc(OCCN5CCCCC5)ccc4o3)CCCCC2)C(=O)C1 (stereo not shown) [Example 163, 4-[N-[1-[N-(5-(2-piperidinethoxy)benzofuran-2-ylcarbonyl)amino]cyclohexanecarbonyl]amino]-1-(2-methanesulfonylphenyl)piperidin-3-one]",0.55 nM
17,"O=C(NC1(C(=O)NC2CCN(c3ccccc3Br)CC2=O)CCCCC1)c1cc2ccccc2o1 (stereo not shown) [Example 35, 4-[N-[1-[N-(benzofuran-2-ylcarbonyl)amino]cyclohexanecarbonyl]amino]-1-(2-bromophenyl)piperidin-3-one]",2.35 nM

# — patent US7342027B2 (Yuhan Corporation, priority 2002, dated 2008)
